Experiments:
[1] = biological target: Recombinant HDAC1 (Homo sapiens (Human), UniProt Q13547); assay: HDAC1 inhibition, Fluor de Lys fluorescent enzyme assay; assay type: biochemical; conditions: 3 hours pre-incubation at room temp; 6 nM enzyme; 16 μM Fluor de Lys substrate; duplicate
Summary of the method: (§1)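 Enzyme (HDAC1 6 nM, HDAC3/NCor2 1.2 nM final) pre-incubated with compound 3 h at ~22 °C in Tris pH 8 buffer with 0.01% BSA. Reaction run 1 h with 16 μM Fluor de Lys substrate and stopped with TSA-containing developer. Fluorescence read at Ex 360/Em 460; IC50 from an occupancy equation with Hill coefficient, in duplicate.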

[2] = biological target: HDAC3/NCor2 (Homo sapiens (Human), UniProt O15379); assay: HDAC3 inhibition, Fluor de Lys fluorescent enzyme assay; assay type: biochemical; conditions: 3 hours pre-incubation at room temp; 1.2 nM enzyme; 16 μM Fluor de Lys substrate; duplicate
Summary of the method: as §1

HDAC3/NCor2, sequence (O15379 whole entry): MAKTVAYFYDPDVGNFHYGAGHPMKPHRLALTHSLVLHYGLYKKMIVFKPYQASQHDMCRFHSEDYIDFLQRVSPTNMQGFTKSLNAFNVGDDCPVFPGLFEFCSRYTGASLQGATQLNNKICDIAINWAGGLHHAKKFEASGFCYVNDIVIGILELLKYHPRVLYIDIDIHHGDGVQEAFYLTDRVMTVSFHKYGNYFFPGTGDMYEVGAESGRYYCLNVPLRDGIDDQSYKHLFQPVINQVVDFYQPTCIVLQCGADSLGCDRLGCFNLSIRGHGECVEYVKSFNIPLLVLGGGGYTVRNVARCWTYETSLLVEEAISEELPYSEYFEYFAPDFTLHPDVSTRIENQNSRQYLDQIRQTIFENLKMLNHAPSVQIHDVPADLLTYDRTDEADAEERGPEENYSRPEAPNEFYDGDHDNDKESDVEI
HDAC3/NCor2, sequence (Q9Y618 395-489 partner): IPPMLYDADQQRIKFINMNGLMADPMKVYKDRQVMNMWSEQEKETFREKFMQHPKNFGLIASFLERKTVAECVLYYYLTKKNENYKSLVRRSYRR
Recombinant HDAC1, sequence (Q13547 whole entry): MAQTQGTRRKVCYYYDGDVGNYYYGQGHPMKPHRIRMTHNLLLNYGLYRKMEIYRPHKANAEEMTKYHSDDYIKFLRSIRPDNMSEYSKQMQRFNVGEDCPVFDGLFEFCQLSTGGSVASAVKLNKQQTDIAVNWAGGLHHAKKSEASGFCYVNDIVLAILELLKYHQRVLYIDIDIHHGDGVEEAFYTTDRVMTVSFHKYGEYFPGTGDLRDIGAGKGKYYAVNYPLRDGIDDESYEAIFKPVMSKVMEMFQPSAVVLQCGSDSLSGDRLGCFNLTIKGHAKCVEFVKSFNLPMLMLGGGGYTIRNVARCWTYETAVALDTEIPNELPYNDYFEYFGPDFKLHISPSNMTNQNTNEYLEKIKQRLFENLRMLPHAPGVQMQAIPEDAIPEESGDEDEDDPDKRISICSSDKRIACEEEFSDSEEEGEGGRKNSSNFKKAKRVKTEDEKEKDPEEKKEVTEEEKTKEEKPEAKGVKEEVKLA

SMILES | IC50 [1] [nM] | IC50 [2] [nM]
CS(=N)(=O)C1(c2ccc(C(=O)Nc3cc(-c4cccs4)ccc3N)cc2)CC1 (stereo not drawn) [Compound 140, N-[2-amino-5-(2-thienyl)phenyl]-4-[1-(methylsulfonimidoyl)cyclopropyl]benzamide] | < 100 | 500 to 2000
CS(=N)(=O)c1ccc2oc(C(=O)Nc3cc(-c4cccs4)ccc3N)cc2c1 (stereo not drawn) [Compound 143, N-[2-amino-5-(2-thienyl)phenyl]-5-(methylsulfonimidoyl)benzofuran-2-carboxamide] | < 100 | 500 to 2000
CC(C)(C)OC(=O)N=S(=O)(c1ccc(C(=O)Nc2cc(-c3cccs3)ccc2NC(=O)OC(C)(C)C)cc1)C1CC1 (stereo not drawn) [Compound 112, tert-butyl N-[[4-[[2-(tert-butoxycarbonylamino)-5-(2-thienyl)phenyl]carbamoyl]phenyl]-cyclopropyl-oxo-sulfanylidene]carbamate] | > 2000 | > 2000
CS(=N)(=O)c1ccc(C(=O)Nc2cc(-c3cccs3)ccc2N)cn1 (stereo not drawn) [Compound 110, N-[2-amino-5-(2-thienyl)phenyl]-6-(methylsulfonimidoyl)pyridine-3-carboxamide] | < 100 | 500 to 2000
N=S(=O)(c1ccccc1)c1ccc(C(=O)Nc2cc(-c3cccs3)ccc2N)cc1 (stereo not drawn) [Compound 102, N-[2-amino-5-(2-thienyl)phenyl]-4-(phenylsulfonimidoyl)benzamide] | < 100 | 500 to 2000
Nc1ccc(-c2ccc(F)cc2)cc1NC(=O)c1ccc([S@]2(=O)=N[C@@H](c3ccccc3)CC2)cc1 (racemic) [Compound 196, rac-N-(4-amino-4′-fluoro-[1,1′-biphenyl]-3-yl)-4-((1S,3R)-1-oxido-3-phenyl-4,5-dihydro-3H-1λ^6-isothiazol-1-yl)benzamide] | < 100 | > 2000
N=S(=O)(c1ccc(C(=O)Nc2cc(-c3ccc(F)cc3)ccc2N)cc1)c1ccc(CO)nc1 (stereo not drawn) [Compound 208] | < 100 | 500 to 2000
N=[S@](=O)(c1ccc(C(=O)Nc2cc(-c3ccc(F)cc3)ccc2N)cc1)c1ccccn1 (single isomer, unassigned) [Compound 220] | < 100 | 500 to 2000
N=S(=O)(c1ccc(C(=O)Nc2cc(-c3cccs3)ccc2N)cc1)C1CC1 (stereo not drawn) [Compound 103, N-[2-amino-5-(2-thienyl)phenyl]-4-(cyclopropylsulfonimidoyl)benzamide] | < 100 | 500 to 2000
Cc1ccncc1S(=N)(=O)c1ccc(C(=O)Nc2cc(-c3ccc(F)cc3)ccc2N)cc1 (stereo not drawn) [Compound 198, N-[2-amino-5-(4-fluorophenyl)phenyl]-4-[(4-methyl-3-pyridyl)sulfonimidoyl]benzamide] | < 100 | 500 to 2000
CS(=N)(=O)c1ncc(C(=O)Nc2cc(-c3ccc(F)cc3)ccc2N)s1 (stereo not drawn) [Compound 164, N-[2-amino-5-(4-fluorophenyl)phenyl]-2-(methylsulfonimidoyl)thiazole-5-carboxamide] | 100 to 500 | 500 to 2000
CS(=O)(=NC1CC1)c1ccc(C(=O)Nc2cc(-c3ccc(F)cc3)ccc2N)cc1 (stereo not drawn) [Compound 163, N-[2-amino-5-(4-fluorophenyl)phenyl]-4-(N-cyclopropyl-S-methyl-sulfonimidoyl)benzamide] | < 100 | 100 to 500
N=S(=O)(c1ccc(C(=O)Nc2cc(-c3ccc(F)cc3)ccc2N)cc1)C(F)(F)F (stereo not drawn) [Compound 177, N-[2-amino-5-(4-fluorophenyl)phenyl]-4-(trifluoromethylsulfonimidoyl)benzamide] | < 100 | 500 to 2000
N=S(=O)(c1ccc(C(=O)Nc2cc(-c3cccs3)ccc2N)cc1)c1ccccn1 (stereo not drawn) [Compound 150, N-[2-amino-5-(2-thienyl)phenyl]-4-(2-pyridylsulfonimidoyl)benzamide] | < 100 | 500 to 2000
C[S@](=N)(=O)c1ccc(C(=O)Nc2cc(-c3ccc(F)s3)ccc2N)cc1 [Compound 149, (S)—N-[2-amino-5-(5-fluoro-2-thienyl)phenyl]-4-(methylsulfonimidoyl)benzamide] | < 100 | 500 to 2000
CS(=N)(=O)c1ccc(C(=O)Nc2cc(-c3ccccn3)ccc2N)cc1 (stereo not drawn) [Compound 119, N-[2-amino-5-(2-pyridyl)phenyl]-4-(methylsulfonimidoyl)benzamide] | 100 to 500 | > 2000
N=S(=O)(c1ccc(C(=O)Nc2cc(-c3ccc(F)cc3)ccc2N)cc1)c1cnccc1O (stereo not drawn) [Compound 227, N-[2-amino-5-(4-fluorophenyl)phenyl]-4-[(4-hydroxy-3-pyridyl)sulfonimidoyl]benzamide] | < 100 | 500 to 2000
CC(C)c1cncc(S(=N)(=O)c2ccc(C(=O)Nc3cc(-c4ccc(F)cc4)ccc3N)cc2)c1 (stereo not drawn) [Compound 226, N-[2-amino-5-(4-fluorophenyl)phenyl]-4-[(5-isopropyl-3-pyridyl)sulfonimidoyl]benzamide] | < 100 | 500 to 2000
COCCOCc1ccc(S(=N)(=O)c2ccc(C(=O)Nc3cc(-c4ccc(F)cc4)ccc3N)cc2)cn1 (stereo not drawn) [Compound 246, N-[2-amino-5-(4-fluorophenyl)phenyl]-4-[[6-(2-methoxyethoxymethyl)-3-pyridyl]sulfonimidoyl]benzamide] | < 100 | 500 to 2000
N=S(=O)(c1ccc(C(=O)Nc2cc(-c3ccc(F)cc3)ccc2N)cc1)c1cccc(F)c1 (stereo not drawn) [Compound 216, N-[2-amino-5-(4-fluorophenyl)phenyl]-4-[(3-fluorophenyl)sulfonimidoyl]benzamide] | < 100 | 500 to 2000
N=[S@@](=O)(c1ccc(C(=O)Nc2cc(-c3ccc(F)s3)ccc2N)cc1)C1CC1 (single isomer, unassigned) [Compound 133] | < 100 | 500 to 2000
CS(=N)(=O)c1ccc(C(=O)Nc2cc(-c3ccc(C(N)=O)s3)ccc2N)cc1 (stereo not drawn) [Compound 176, 5-[4-amino-3-[[4-(methylsulfonimidoyl)benzoyl]amino]phenyl]thiophene-2-carboxamide] | > 2000 | > 2000
[2H]c1c([2H])c(-c2ccc(N)c(NC(=O)c3ccc(S(C)(=N)=O)cc3)c2)c([2H])c([2H])c1F (stereo not drawn) [Compound 223, N-[2-amino-5-(2,3,5,6-tetradeutero-4-fluoro-phenyl)phenyl]-4-(methylsulfonimidoyl)benzamide] | < 100 | 500 to 2000
CS(=O)(=NC1CC1)c1ccc2oc(C(=O)Nc3cc(-c4ccc(F)cc4)ccc3N)cc2c1 (stereo not drawn) [Compound 230, N-[2-amino-5-(4-fluorophenyl)phenyl]-5-(N-cyclopropyl-S-methyl-sulfonimidoyl)benzofuran-2-carboxamide] | < 100 | 500 to 2000
N=S(=O)(c1ccc(C(=O)Nc2cc(-c3ccccn3)ccc2N)cc1)C1CC1 (stereo not drawn) [Compound 120, N-[2-amino-5-(2-pyridyl)phenyl]-4-(cyclopropylsulfonimidoyl)benzamide] | 100 to 500 | > 2000
CC1CCS(=O)(c2ccc(C(=O)Nc3cc(-c4ccc(F)cc4)ccc3N)cc2)=N1 (stereo not drawn) [Compound 244] | < 100 | > 2000
COc1ccncc1S(=N)(=O)c1ccc(C(=O)Nc2cc(-c3ccc(F)cc3)ccc2N)cc1 (stereo not drawn) [Compound 240, N-[2-amino-5-(4-fluorophenyl)phenyl]-4-[(4-methoxy-3-pyridyl)sulfonimidoyl]benzamide] | < 100 | 500 to 2000
Cc1cncc(S(=N)(=O)c2ccc(C(=O)Nc3cc(-c4ccc(F)cc4)ccc3N)cc2)c1 (stereo not drawn) [Compound 199, N-[2-amino-5-(4-fluorophenyl)phenyl]-4-[(5-methyl-3-pyridyl)sulfonimidoyl]benzamide] | < 100 | 500 to 2000
N=[S@@](=O)(c1ccc(C(=O)Nc2cc(-c3ccc(F)cc3)ccc2N)cc1)c1cncnc1 (single isomer, unassigned) [Compound 181] | < 100 | 500 to 2000
N#Cc1ccc(S(=N)(=O)c2ccc(C(=O)Nc3cc(-c4ccc(F)cc4)ccc3N)cc2)cn1 (stereo not drawn) [Compound 239, N-[2-amino-5-(4-fluorophenyl)phenyl]-4-[(6-cyano-3-pyridyl)sulfonimidoyl]benzamide] | < 100 | 500 to 2000
